Results as given in patent publication US6790867B2, “Compositions and method for treating infection in cattle and swine” (Schering-Plough Animal Health Corporation, priority 2002, dated 2004).

Assay: in vivo
Design: species or system cattle
Settings: both sexes, bovine, 2.2 mg/kg
Protocol: In a second study, the pharmacokinetic profile of the second active component in Formulation 1A, flunixin, was examined. The pharmacokinetic profile of flunixin was evaluated following administration to cattle as the approved single entity flunixin meglumine product, […], and as the combination product Formulation 1A. This study was conducted in four phases using six cattle (3 males, 3 females). All animals received […] intravenously (IV) in the first phase. This was followed, after a washout period, by the administration of […] intramuscularly (IM) to 3 cows and […] subcutaneously (SQ) to 3 cows. In the next phase the animals were crossed over and received […] or SQ. In the final phase, all six cattle received the flunixin/florfenicol combination product (Formulation 1A). All animals received flunixin at a dose of 2.2 mg/kg, regardless of the formulation or route of administration. Blood samples for determination of flunixin concentration were collected at 0, 0.17, 0.5, 0.75, 1, 2, 3, 4, 6, 8, 12 and 24 hours after dosing. At the final phase of the study, the 6 cattle were given Formulation 1A at a dose of 10 mL per 75 kg SQ (equivalent to 40 mg/kg of florfenicol and 2.2 mg/kg of flunixin). The kinetics of flunixin when administered as Formulation 1A are different from the kinetics of flunixin when administered as […]. As such, the clinical dose response of Formulation 1A were ascertained in a subsequent study (described below).

Cc1c(Nc2ncccc2C(=O)O)cccc1C(F)(F)F [Flunixin, flunixin meglumine]
AUC(0-inf) (im): 10500 ng·h/mL
Cmax (im): 3240 ng/mL
Tmax (im): 30.6 min
AUC(0-inf) (iv): 13600 ng·h/mL
AUC(0-inf) (sc): 10900 ng·h/mL
Cmax (sc): 2860 ng/mL
Tmax (sc): 32.4 min
